# From ChEMBL document CHEMBL1201862, “PubChem BioAssay data set” (2004)
#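 Five concentrations, 48 hours, 96-well plates. The concentration for 50% growth inhibition is given as GI50.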 Activity calls are given as the source filed them. Rule as the data show it: active = GI50 up to about 1.1 µM and inactive = higher.
# What was measured:
# Assay in all cases: NCI tumour cell line growth inhibition, 48 h
# SF-539 = tested on: SF-539
# NCI-H460 = tested on: NCI-H460
# OVCAR-8 = tested on: OVCAR-8
# ACHN = tested on: ACHN
# UACC-257 = tested on: UACC-257
# EKVX = tested on: EKVX
# M14 = tested on: M14
# UACC-62 = tested on: UACC-62
# HCT-15 = tested on: HCT-15
# HCC 2998 = tested on: HCC 2998
# COLO 205 = tested on: COLO 205
# SW-620 = tested on: SW-620
# A549 = tested on: A549
# IGROV-1 = tested on: IGROV-1
# OVCAR-5 = tested on: OVCAR-5
# SNB-75 = tested on: SNB-75
# SK-OV-3 = tested on: SK-OV-3
# CAKI-1 = tested on: CAKI-1
# HL-60 = tested on: HL-60
# SK-MEL-5 = tested on: SK-MEL-5
# HT-29 = tested on: HT-29
# SN12C = tested on: SN12C
# OVCAR-3 = tested on: OVCAR-3
# U-251 = tested on: U-251
# OVCAR-4 = tested on: OVCAR-4
# NCI-H522 = tested on: NCI-H522
# RXF 393 = tested on: RXF 393
# K562 = tested on: K562
# MCF7 = tested on: MCF7
# MOLT-4 = tested on: MOLT-4
# PC-3 = tested on: PC-3
# KM12 = tested on: KM12
# MDA-N = tested on: MDA-N
# HOP-62 = tested on: HOP-62
# BT-549 = tested on: BT-549
# CCRF-CEM = tested on: CCRF-CEM
# T47D = tested on: T47D
# NCI-H226 = tested on: NCI-H226
# SK-MEL-2 = tested on: SK-MEL-2
# Hs-578T = tested on: Hs-578T
# NCI/ADR-RES = tested on: NCI/ADR-RES
# TK-10 = tested on: TK-10
# DU-145 = tested on: DU-145
# HOP-92 = tested on: HOP-92
# MDA-MB-435 = tested on: MDA-MB-435
# A498 = tested on: A498
# SF-295 = tested on: SF-295
# SNB-19 = tested on: SNB-19
# SF-268 = tested on: SF-268
# LOX IMVI = tested on: LOX IMVI
# HCT-116 = tested on: HCT-116
# MDA-MB-231 = tested on: MDA-MB-231
# Malme-3M = tested on: Malme-3M
# NCI-H23 = tested on: NCI-H23
# 786-0 = tested on: 786-0
# SK-MEL-28 = tested on: SK-MEL-28
# UO-31 = tested on: UO-31
smiles,measurement,setting,value
Cc1ccc(-c2cc(-c3ccc(Cl)cc3)nc(/N=C3\C(=O)N(CN4CCCCC4)c4ccc(Cl)cc43)n2)cc1,GI50,SF-539,24.5 µM (inactive)
same,GI50,NCI-H460,22.5 µM (inactive)
same,GI50,OVCAR-8,18.5 µM (inactive)
same,GI50,ACHN,29.6 µM (inactive)
same,GI50,UACC-257,22.9 µM (inactive)
same,GI50,EKVX,77.8 µM (inactive)
same,GI50,M14,15.6 µM (inactive)
same,GI50,UACC-62,23 µM (inactive)
same,GI50,HCT-15,24.4 µM
same,GI50,HCC 2998,14.9 µM (inactive)
same,GI50,COLO 205,25.2 µM (inactive)
same,GI50,SW-620,24.3 µM (inactive)
same,GI50,A549,16.4 µM (inactive)
same,GI50,IGROV-1,10.5 µM (inactive)
same,GI50,OVCAR-5,38.2 µM (inactive)
same,GI50,SNB-75,42.9 µM (inactive)
same,GI50,SK-OV-3,31.8 µM (inactive)
same,GI50,CAKI-1,18.1 µM (inactive)
same,GI50,HL-60,16 µM (inactive)
same,GI50,SK-MEL-5,19.8 µM (inactive)
same,GI50,HT-29,32.3 µM (inactive)
same,GI50,SN12C,25.9 µM (inactive)
same,GI50,OVCAR-3,35.5 µM (inactive)
same,GI50,U-251,24 µM (inactive)
same,GI50,OVCAR-4,31.5 µM (inactive)
same,GI50,NCI-H522,12.5 µM (inactive)
same,GI50,RXF 393,18.3 µM (inactive)
same,GI50,K562,19.9 µM (inactive)
same,GI50,MCF7,21.1 µM (inactive)
same,GI50,MOLT-4,11.7 µM (inactive)
same,GI50,PC-3,34 µM (inactive)
same,GI50,KM12,15.8 µM (inactive)
same,GI50,MDA-N,21.3 µM (inactive)
same,GI50,HOP-62,26.3 µM (inactive)
same,GI50,BT-549,22.4 µM (inactive)
same,GI50,CCRF-CEM,36.3 µM (inactive)
same,GI50,T47D,29.9 µM (inactive)
same,GI50,NCI-H226,39.4 µM (inactive)
same,GI50,SK-MEL-2,18.2 µM (inactive)
same,GI50,Hs-578T,18.9 µM (inactive)
same,GI50,NCI/ADR-RES,22.1 µM (inactive)
same,GI50,TK-10,21.7 µM (inactive)
same,GI50,DU-145,37.5 µM (inactive)
same,GI50,HOP-92,15.6 µM (inactive)
same,GI50,MDA-MB-435,20.3 µM (inactive)
same,GI50,A498,18.8 µM (inactive)
same,GI50,SF-295,42.2 µM (inactive)
same,GI50,SNB-19,11.2 µM (inactive)
same,GI50,SF-268,17.9 µM (inactive)
same,GI50,LOX IMVI,23.3 µM (inactive)
same,GI50,HCT-116,23.1 µM (inactive)
same,GI50,MDA-MB-231,36.2 µM (inactive)
same,GI50,Malme-3M,84.3 µM (inactive)
same,GI50,NCI-H23,19.1 µM (inactive)
same,GI50,786-0,18.9 µM (inactive)
same,GI50,SK-MEL-28,64.1 µM (inactive)
Cc1cc(C)n(C2=NS(=O)(=O)c3ccccc3N2C)n1,GI50,SF-539,> 100 µM (inactive)
same,GI50,NCI-H460,> 100 µM (inactive)
same,GI50,OVCAR-8,> 100 µM (inactive)
same,GI50,ACHN,> 100 µM (inactive)
same,GI50,UACC-257,> 100 µM (inactive)
same,GI50,EKVX,> 100 µM (inactive)
same,GI50,M14,> 100 µM (inactive)
same,GI50,UACC-62,> 100 µM (inactive)
same,GI50,HCT-15,> 100 µM
same,GI50,HCC 2998,> 100 µM (inactive)
same,GI50,UO-31,> 100 µM (inactive)
same,GI50,COLO 205,> 100 µM (inactive)
same,GI50,SW-620,> 100 µM (inactive)
same,GI50,A549,> 100 µM (inactive)
same,GI50,IGROV-1,> 100 µM (inactive)
same,GI50,OVCAR-5,> 100 µM (inactive)
same,GI50,SK-OV-3,> 100 µM (inactive)
same,GI50,CAKI-1,> 100 µM (inactive)
same,GI50,HL-60,> 100 µM (inactive)
same,GI50,SK-MEL-5,> 100 µM (inactive)
same,GI50,HT-29,> 100 µM (inactive)
same,GI50,SN12C,> 100 µM (inactive)
same,GI50,OVCAR-3,> 100 µM (inactive)
same,GI50,U-251,> 100 µM (inactive)
same,GI50,OVCAR-4,> 100 µM (inactive)
same,GI50,NCI-H522,> 100 µM (inactive)
same,GI50,RXF 393,> 100 µM (inactive)
same,GI50,K562,> 100 µM (inactive)
same,GI50,MCF7,> 100 µM (inactive)
same,GI50,MOLT-4,> 100 µM (inactive)
same,GI50,PC-3,> 100 µM (inactive)
same,GI50,KM12,> 100 µM (inactive)
same,GI50,MDA-N,> 100 µM (inactive)
same,GI50,HOP-62,> 100 µM (inactive)
same,GI50,BT-549,> 100 µM (inactive)
same,GI50,CCRF-CEM,> 100 µM (inactive)
same,GI50,T47D,> 100 µM (inactive)
same,GI50,NCI-H226,> 100 µM (inactive)
same,GI50,SK-MEL-2,> 100 µM (inactive)
same,GI50,Hs-578T,> 100 µM (inactive)
same,GI50,NCI/ADR-RES,> 100 µM (inactive)
same,GI50,TK-10,> 100 µM (inactive)
same,GI50,DU-145,> 100 µM (inactive)
same,GI50,HOP-92,> 100 µM (inactive)
same,GI50,MDA-MB-435,> 100 µM (inactive)
same,GI50,A498,> 100 µM (inactive)
same,GI50,SF-295,> 100 µM (inactive)
same,GI50,SNB-19,> 100 µM (inactive)
same,GI50,SF-268,> 100 µM (inactive)
same,GI50,LOX IMVI,> 100 µM (inactive)
same,GI50,HCT-116,> 100 µM (inactive)
same,GI50,MDA-MB-231,> 100 µM (inactive)
same,GI50,NCI-H23,> 100 µM (inactive)
same,GI50,786-0,> 100 µM (inactive)
same,GI50,SK-MEL-28,> 100 µM (inactive)
